Literature values in patent US7041676B2, “Compounds, compositions, and methods” (Cytokinetics, Inc., priority 2002, dated 2006).

Test system: A549 cells
Details: data provided by National Cancer Institute, Developmental Therapeutic Program

For `O=c1[nH]cc(F)c(=O)[nH]1` [5-fluorouracil], the GI50 is given as 1000 nM.
In the case of `COc1cccc2c1C(=O)c1c(O)c3c(c(O)c1C2=O)C[C@@](O)(C(=O)CO)C[C@@H]3O[C@H]1C[C@H](N)[C@H](O)[C@H](C)O1` [doxorubicin], the GI50 is listed as 63 nM.
In the case of `NC(=O)NO` [hydroxyurea], the GI50 is listed as 500000 nM.
In the case of `CC(=O)O[C@H]1C(=O)[C@@]2(C)[C@H]([C@H](OC(=O)c3ccccc3)[C@]3(O)C[C@H](OC(=O)[C@H](O)[C@@H](NC(=O)c4ccccc4)c4ccccc4)C(C)=C1C3(C)C)[C@]1(OC(C)=O)CO[C@@H]1C[C@@H]2O` [paclitaxel], the GI50 is given as 4 nM.
